Test results: ChEMBL document CHEMBL5260810, “Inhibition of bromodomain-containing protein 9 for the prevention of epigenetically-defined drug resistance” (Bioorg Med Chem Lett, 2017)

Columns and labels:
[1] = Cytotoxicity against mouse LL2 cells measured after 8 days; type: functional, cell-based; settings: Lewis lung carcinoma, 192 h
[2] = Cytotoxicity against human MCAS cells measured after 8 days; type: functional, cell-based; settings: 192 h
CT26.WT = assay: Cytotoxicity against mouse CT26.WT cells measured after 8 days; type: functional, cell-based; settings: 192 h
CAKI-2 = assay: Cytotoxicity against human CAKI-2 cells measured after 8 days; type: functional, cell-based; settings: CAKI-2, 192 h
[3] = Cytotoxicity against human MMAc cells measured after 8 days; type: functional, cell-based; settings: 192 h
SiHa = assay: Cytotoxicity against human SiHa cells measured after 8 days; type: functional, cell-based; settings: 192 h
[4] = Cytotoxicity against human Fu97 cells measured after 8 days; type: functional, cell-based; settings: Fu97, 192 h
KYSE-450 = assay: Cytotoxicity against human KYSE-450 cells measured after 8 days; type: functional, cell-based; settings: KYSE-450, 192 h
FaDu = assay: Cytotoxicity against human FaDu cells measured after 8 days; type: functional, cell-based; settings: 192 h
SK-MEL3 = assay: Cytotoxicity against human SK-MEL3 cells measured after 8 days; type: functional, cell-based; settings: SK-MEL3, 192 h
[5] = Cytotoxicity against mouse JC cells measured after 8 days; type: functional, cell-based; settings: 192 h
SK-MEL-2 = assay: Cytotoxicity against human SK-MEL-2 cells measured after 8 days; type: functional, cell-based; settings: SK-MEL-2, 192 h
Homo sapiens = species: Homo sapiens; assay: Inhibition of human N muscle type receptor at 10 uM relative to control
[6] = Cytotoxicity against human KMS-26 cells measured after 8 days; type: functional, cell-based; settings: KMS-26, 192 h
MDA-MB-453 = assay: Cytotoxicity against human MDA-MB-453 cells measured after 8 days; type: functional, cell-based; settings: MDA-MB-453, 192 h
U2OS = assay: Cytotoxicity against human U2OS cells measured after 8 days; type: functional, cell-based; settings: 192 h
TOV21G = assay: Cytotoxicity against human TOV-21G cells measured after 8 days; type: functional, cell-based; settings: 192 h
MHH-ES-1 = assay: Cytotoxicity against human MHH-ES-1 cells measured after 8 days; type: functional, cell-based; settings: MHH-ES-1, 192 h
[7] = Cytotoxicity against mouse TRAMP-C2 cells measured after 8 days; type: functional, cell-based; settings: TRAMP-C2, 192 h
SH-SY5Y = assay: Cytotoxicity against human SH-SY5Y cells measured after 8 days; type: functional, cell-based; settings: 192 h
RT-112 = assay: Cytotoxicity against human RT-112 cells measured after 8 days; type: functional, cell-based; settings: RT-112, 192 h
S-117 = assay: Cytotoxicity against human S-117 cells measured after 8 days; type: functional, cell-based; settings: S-117, 192 h
L-363 = assay: Cytotoxicity against human L-363 cells measured after 8 days; type: functional, cell-based; settings: L-363, 192 h
[8] = Cytotoxicity against human KP-3 cells measured after 8 days; type: functional, cell-based; settings: KP-3, 192 h
RT-4 = assay: Cytotoxicity against human RT-4 cells measured after 8 days; type: functional, cell-based; settings: RT-4, 192 h
[9] = Cytotoxicity against human COLO-704 cells measured after 8 days; type: functional, cell-based; settings: COLO 704, 192 h
BT-474 = assay: Cytotoxicity against human BT-474 cells measured after 8 days; type: functional, cell-based; settings: BT-474, 192 h
COLO-679 = assay: Cytotoxicity against human COLO-679 cells measured after 8 days; type: functional, cell-based; settings: COLO-679, 192 h
[10] = Cytotoxicity against human FTC-238 cells measured after 8 days; type: functional, cell-based; settings: FTC-238, 192 h
[11] = Cytotoxicity against human SW403 cells measured after 8 days; type: functional, cell-based; settings: SW-403, 192 h
G-401 = assay: Cytotoxicity against human G-401 cells measured after 8 days; type: functional, cell-based; settings: G-401, 192 h
BHY = assay: Cytotoxicity against human BHY cells measured after 8 days; type: functional, cell-based; settings: 192 h
[12] = Cytotoxicity against human T.T cells measured after 8 days; type: functional, cell-based; settings: TT, 192 h
[13] = Cytotoxicity against human HEC-88nu cells measured after 8 days; type: functional, cell-based; settings: 192 h
[14] = Cytotoxicity against human KPP14388 cells measured after 8 days; type: functional, cell-based; settings: KPP14388, 192 h
[15] = Cytotoxicity against human SKG-II cells measured after 8 days; type: functional, cell-based; settings: 192 h
OE33 = assay: Cytotoxicity against human OE33 cells measured after 8 days; type: functional, cell-based; settings: OE33, 192 h
[16] = Cytotoxicity against human NCE-G 121 cells measured after 8 days; type: functional, cell-based; settings: NCE-G 121, 192 h
LOX IMVI = assay: Cytotoxicity against human LOX IMVI cells measured after 8 days; type: functional, cell-based; settings: 192 h
[17] = Cytotoxicity against human QGP-1 cells measured after 8 days; type: functional, cell-based; settings: QGP-1, 192 h
SW837 = assay: Cytotoxicity against human SW837 cells measured after 8 days; type: functional, cell-based; settings: SW837, 192 h
[18] = Cytotoxicity against human MR1-3 cells measured after 8 days; type: functional, cell-based; settings: MR1-3, 192 h
KINGS-1 = assay: Cytotoxicity against human KINGS-1 cells measured after 8 days; type: functional, cell-based; settings: KINGS-1, 192 h
MKN-74 = assay: Cytotoxicity against human MKN-74 cells measured after 8 days; type: functional, cell-based; settings: MKN-74, 192 h
RL95-2 = assay: Cytotoxicity against human RL95-2 cells measured after 8 days; type: functional, cell-based; settings: RL95-2, 192 h
Capan-2 = assay: Cytotoxicity against human Capan-2 cells measured after 8 days; type: functional, cell-based; settings: Capan-2, 192 h
[19] = Cytotoxicity against human JHH7 cells measured after 8 days; type: functional, cell-based; settings: JHH7, 192 h
BCPAP = assay: Cytotoxicity against human BCPAP cells measured after 8 days; type: functional, cell-based; settings: 192 h
OE19 = assay: Cytotoxicity against human OE19 cells measured after 8 days; type: functional, cell-based; settings: OE19, 192 h
PaTu 8988t = assay: Cytotoxicity against human PaTu 8988t cells measured after 8 days; type: functional, cell-based; settings: 192 h
FTC-133 = assay: Cytotoxicity against human FTC-133 cells measured after 8 days; type: functional, cell-based; settings: FTC-133, 192 h
A-431 = assay: Cytotoxicity against human A-431 cells measured after 8 days; type: functional, cell-based; settings: A-431, 192 h
COLO-320-HSR = assay: Cytotoxicity against human COLO 320HSR cells measured after 8 days; type: functional, cell-based; settings: 192 h
[20] = Cytotoxicity against human SNU-484 cells measured after 8 days; type: functional, cell-based; settings: SNU-484, 192 h
RS4-11 = assay: Cytotoxicity against human RS4-11 cells measured after 8 days; type: functional, cell-based; settings: RS4-11, 192 h
Huh-7 = assay: Cytotoxicity against human Huh-7 cells measured after 8 days; type: functional, cell-based; settings: Huh-7, 192 h
BXPC-3 = assay: Cytotoxicity against human BXPC-3 cells measured after 8 days; type: functional, cell-based; settings: BXPC-3, 192 h
OCI-AML-3 = assay: Cytotoxicity against human OCI-AML-3 cells measured after 8 days; type: functional, cell-based; settings: OCI-AML-3, 192 h
[21] = Cytotoxicity against human HEC-6 cells measured after 8 days; type: functional, cell-based; settings: HEC-6, 192 h
BOKU = assay: Cytotoxicity against human BOKU cells measured after 8 days; type: functional, cell-based; settings: 192 h
MC-38 = assay: Cytotoxicity against mouse MC-38 cells measured after 8 days; type: functional, cell-based; settings: MC-38, 192 h
[22] = Cytotoxicity against human JHH-2 cells measured after 8 days; type: functional, cell-based; settings: JHH-2, 192 h
[23] = Cytotoxicity against human JJ012 cells measured after 8 days; type: functional, cell-based; settings: JJ012, 192 h

C/C=C/Cn1cc(-c2ccc(C(C)(C)O)cc2OC)c2cc[nH]c2c1=O showed an IC50 [1] of 20 µM, an IC50 [2] of 20 µM and an IC50 (CT26.WT) of 20 µM. The IC50 (CAKI-2) was 20 µM, the IC50 [3] was 20 µM and the IC50 (SiHa) was 20 µM. The IC50 [4] was 20 µM, the IC50 (KYSE-450) was 20 µM and the IC50 (FaDu) was 20 µM. For the same compound, the IC50 (SK-MEL3) was 20 µM, the IC50 [5] was 20 µM and the IC50 (SK-MEL-2) was 20 µM. It also gave an inhibition (Homo sapiens) of -7%, an IC50 [6] of 2.61 µM and an IC50 (MDA-MB-453) of 20 µM. For the same compound, the IC50 (U2OS) was 20 µM, the IC50 (TOV21G) was 20 µM and the IC50 (MHH-ES-1) was 20 µM. For the same compound, the IC50 [7] was 20 µM, the IC50 (SH-SY5Y) was 20 µM and the IC50 (RT-112) was 20 µM. For the same compound, the IC50 (S-117) was 20 µM, the IC50 (L-363) was 20 µM and the IC50 [8] was 20 µM. For the same compound, the IC50 (RT-4) was 20 µM, the IC50 [9] was 20 µM and the IC50 (BT-474) was 20 µM. It also gave an IC50 (COLO-679) of 20 µM, an IC50 [10] of 9.52 µM and an IC50 [11] of 20 µM. The IC50 (G-401) was 20 µM, the IC50 (BHY) was 20 µM and the IC50 [12] was 20 µM. The IC50 [13] was 20 µM, the IC50 [14] was 20 µM and the IC50 [15] was 20 µM. The IC50 (OE33) was 20 µM, the IC50 [16] was 20 µM and the IC50 (LOX IMVI) was 20 µM. For the same compound, the IC50 [17] was 20 µM, the IC50 (SW837) was 20 µM and the IC50 [18] was 20 µM. For the same compound, the IC50 (KINGS-1) was 20 µM, the IC50 (MKN-74) was 20 µM and the IC50 (RL95-2) was 20 µM. The IC50 (Capan-2) was 20 µM, the IC50 [19] was 17.8 µM and the IC50 (BCPAP) was 20 µM. For the same compound, the IC50 (OE19) was 20 µM, the IC50 (PaTu 8988t) was 20 µM and the IC50 (FTC-133) was 20 µM. The IC50 (A-431) was 20 µM, the IC50 (COLO-320-HSR) was 20 µM and the IC50 [20] was 20 µM. The IC50 (RS4-11) was 15.4 µM, the IC50 (Huh-7) was 20 µM and the IC50 (BXPC-3) was 20 µM. The IC50 (OCI-AML-3) was 20 µM, the IC50 [21] was 20 µM and the IC50 (BOKU) was 20 µM. For the same compound, the IC50 (MC-38) was 20 µM, the IC50 [22] was 20 µM and the IC50 [23] was 20 µM.
